These are literature values, as cited in patent publication US7709509B2, “Oxadiazolones and derivatives thereof as peroxisome proliferator-activated receptor (PPAR) delta agonists” (Sanofi-Aventis Deutschland GmbH, priority 2004, dated 2010).

Where two headings read alike, the source gives them in different places.

The conditions of series [1]: two weeks clinical trials in healthy volunteers; cited from earlier work.
For series [2] the following is noted: rhesus and cynomolgus monkeys; cited from earlier work.

Turning to `CCCc1c(OCCCSc2nnc(SCC(=O)O)s2)ccc(C(C)=O)c1O` [YM-16638], the results for the plasma lipids entry in series [1] and in series [2] were “acts in a similar manner” and “significantly lowers”, respectively.
